≈ marks a conversion by molar mass, not a printed value. Calls of active or inactive are those of the source. The rule behind the calls is not given here.
Key:
[1] = molecular target: Cyclin-dependent kinase 12 (Homo sapiens) (UniProt Q9NYV4); test: Inhibition of wild type partial length human CDK12 (697 to 1077 residues) to expressed in mammalian expression system at 1 uM by KINOMEscan analysis
[2] = molecular target: Rho-associated protein kinase 2 (Homo sapiens) (UniProt O75116); test: Inhibition of wild type partial length human ROCK2 (1 to 431 residues) expressed in mammalian expression system at 1 uM by KINOMEscan analysis
Rho-associated protein kinase 2 (Homo sapiens), sequence (O75116 whole entry, looked up, the tested form may be a part): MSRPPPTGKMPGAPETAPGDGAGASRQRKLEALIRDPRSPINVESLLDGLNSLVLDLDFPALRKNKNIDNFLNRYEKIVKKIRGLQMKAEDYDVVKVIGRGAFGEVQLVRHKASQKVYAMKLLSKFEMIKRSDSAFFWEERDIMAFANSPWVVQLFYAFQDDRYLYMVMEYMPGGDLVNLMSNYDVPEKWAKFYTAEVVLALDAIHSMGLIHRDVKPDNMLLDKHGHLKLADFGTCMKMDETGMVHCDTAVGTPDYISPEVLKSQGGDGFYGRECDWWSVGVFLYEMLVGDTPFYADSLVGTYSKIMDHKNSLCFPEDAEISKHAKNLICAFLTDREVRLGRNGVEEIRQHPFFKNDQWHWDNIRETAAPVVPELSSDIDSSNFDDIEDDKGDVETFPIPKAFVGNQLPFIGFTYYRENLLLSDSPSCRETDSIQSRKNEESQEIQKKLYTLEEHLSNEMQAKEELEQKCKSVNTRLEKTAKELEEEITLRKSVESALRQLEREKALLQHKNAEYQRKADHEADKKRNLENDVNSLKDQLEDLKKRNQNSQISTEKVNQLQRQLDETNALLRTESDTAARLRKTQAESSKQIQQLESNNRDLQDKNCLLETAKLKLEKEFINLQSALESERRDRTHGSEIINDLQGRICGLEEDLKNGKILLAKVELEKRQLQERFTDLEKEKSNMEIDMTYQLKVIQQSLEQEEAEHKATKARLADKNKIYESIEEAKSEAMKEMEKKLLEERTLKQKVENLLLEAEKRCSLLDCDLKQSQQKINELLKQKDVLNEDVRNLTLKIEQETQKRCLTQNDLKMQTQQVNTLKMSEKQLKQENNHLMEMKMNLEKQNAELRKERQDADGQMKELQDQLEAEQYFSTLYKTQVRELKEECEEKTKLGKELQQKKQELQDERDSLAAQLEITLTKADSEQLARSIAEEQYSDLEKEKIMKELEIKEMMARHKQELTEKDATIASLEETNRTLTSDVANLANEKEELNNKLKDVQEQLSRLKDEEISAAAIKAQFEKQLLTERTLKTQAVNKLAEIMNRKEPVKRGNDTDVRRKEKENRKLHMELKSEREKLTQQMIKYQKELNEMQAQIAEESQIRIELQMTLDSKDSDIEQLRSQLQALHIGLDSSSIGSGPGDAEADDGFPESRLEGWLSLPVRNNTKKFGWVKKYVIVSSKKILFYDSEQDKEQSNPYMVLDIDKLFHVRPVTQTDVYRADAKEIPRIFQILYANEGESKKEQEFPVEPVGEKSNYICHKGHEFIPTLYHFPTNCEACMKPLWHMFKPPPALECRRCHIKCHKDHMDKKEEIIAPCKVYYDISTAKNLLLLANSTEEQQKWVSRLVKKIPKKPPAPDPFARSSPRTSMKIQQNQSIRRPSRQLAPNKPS

MV4-11 [3] = test: Induction of apoptosis in human MV4-11 cells assessed as necrotic cells at 2 uM incubated for 24 hrs by AnnexinV-FITC/PI staining based flow cytometry (reference value: 0%); format: functional
MV4-11 [4] = test: Induction of apoptosis in human MV4-11 cells assessed as increase in cleaved PARP-1 protein expression incubated for 24 hrs by western blot analysis; format: functional, cell-based; details: dose 0.1-4 µM
MV4-11 [5] = test: Induction of apoptosis in human MV4-11 cells assessed as increase in cleaved caspase 3 protein expression incubated for 24 hrs by western blot analysis; format: functional, cell-based; details: dose 0.1-4 µM
[6] = Metabolic stability of the compound in rat plasma at 10 uM measured for 60 mins by LC-MS/MS analysis; format: ADME, cell-free; details: 1 h
MV4-11 [7] = test: Induction of cell cycle arrest in human MV4-11 cells assessed as accumulation of cells at S phase at 0.8 uM incubated fo 36 hrs by propidium iodide staining based flow cytometry (reference value: 26.5%); format: functional
HCT-116 = test: Antiproliferative activity against human HCT-116 cells assessed as reduction in cell viability measured after 72 hrs; format: functional, cell-based; details: HCT-116, 72 h
MV4-11 [8] = test: Induction of apoptosis in human MV4-11 cells assessed as early apoptotic cells at 4 uM incubated for 24 hrs by AnnexinV-FITC/PI staining based flow cytometry (reference value: 1.42%); format: functional
MV4-11 [9] = test: Induction of apoptosis in human MV4-11 cells assessed as early apoptotic cells at 0.5 uM incubated for 24 hrs by AnnexinV-FITC/PI staining based flow cytometry (reference value: 1.42%); format: functional
MV4-11 [10] = test: Induction of apoptosis in human MV4-11 cells assessed as late apoptotic cells at 0.1 uM incubated for 24 hrs by AnnexinV-FITC/PI staining based flow cytometry (reference value: 5.21%); format: functional
MV4-11 [11] = test: Induction of apoptosis in human MV4-11 cells assessed as late apoptotic cells at 2 uM incubated for 24 hrs by AnnexinV-FITC/PI staining based flow cytometry (reference value: 5.21%); format: functional
[12] = Toxicity in BALB/c mouse xenografted with human MV4-11 cells assessed as animal's mortality at 7.5 to 15 mg/kg, iv qd; format: organism-based; details: in vivo, dose 7.5-15 mg/kg
MV4-11 [13] = test: Induction of apoptosis in human MV4-11 cells assessed as necrotic cells at 4 uM incubated for 24 hrs by AnnexinV-FITC/PI staining based flow cytometry (reference value: 0%); format: functional
MV4-11 [14] = test: Induction of apoptosis in human MV4-11 cells assessed as early apoptotic cells at 2 uM incubated for 24 hrs by AnnexinV-FITC/PI staining based flow cytometry (reference value: 1.42%); format: functional
[15] = molecular target: Cyclin-dependent kinase 9 (Homo sapiens) (UniProt P50750); test: Inhibition of CDK9 in human MV4-11 cells assessed as reduction in c-Myc mRNA expression at 0.1 to 2 uM incubated for 12 hrs by qPCR analysis; format: cell-based; details: dose 0.1-2 µM
Cyclin-dependent kinase 9 (Homo sapiens), sequence (P50750 whole entry): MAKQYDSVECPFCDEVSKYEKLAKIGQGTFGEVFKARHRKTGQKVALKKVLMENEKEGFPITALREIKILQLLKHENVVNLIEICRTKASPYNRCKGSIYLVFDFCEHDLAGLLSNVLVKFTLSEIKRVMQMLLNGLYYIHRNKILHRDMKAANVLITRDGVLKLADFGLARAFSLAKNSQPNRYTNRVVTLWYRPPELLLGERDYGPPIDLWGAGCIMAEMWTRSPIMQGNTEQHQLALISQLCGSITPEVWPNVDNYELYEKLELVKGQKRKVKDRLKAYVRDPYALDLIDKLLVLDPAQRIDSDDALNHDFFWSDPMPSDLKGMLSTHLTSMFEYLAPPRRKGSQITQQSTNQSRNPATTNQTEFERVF

A549 = test: Antiproliferative activity against human A549 cells assessed as reduction in cell viability measured after 72 hrs; format: functional, cell-based; details: A549, 72 h
[16] = molecular target: Myosin-IIIb (Homo sapiens) (UniProt Q8WXR4); test: Inhibition of wild type partial length human MYO3B (1 to 357 residues) expressed in bacterial expression system at 1 uM by KINOMEscan analysis
Myosin-IIIb (Homo sapiens), sequence (Q8WXR4 whole entry, the tested form may be a part): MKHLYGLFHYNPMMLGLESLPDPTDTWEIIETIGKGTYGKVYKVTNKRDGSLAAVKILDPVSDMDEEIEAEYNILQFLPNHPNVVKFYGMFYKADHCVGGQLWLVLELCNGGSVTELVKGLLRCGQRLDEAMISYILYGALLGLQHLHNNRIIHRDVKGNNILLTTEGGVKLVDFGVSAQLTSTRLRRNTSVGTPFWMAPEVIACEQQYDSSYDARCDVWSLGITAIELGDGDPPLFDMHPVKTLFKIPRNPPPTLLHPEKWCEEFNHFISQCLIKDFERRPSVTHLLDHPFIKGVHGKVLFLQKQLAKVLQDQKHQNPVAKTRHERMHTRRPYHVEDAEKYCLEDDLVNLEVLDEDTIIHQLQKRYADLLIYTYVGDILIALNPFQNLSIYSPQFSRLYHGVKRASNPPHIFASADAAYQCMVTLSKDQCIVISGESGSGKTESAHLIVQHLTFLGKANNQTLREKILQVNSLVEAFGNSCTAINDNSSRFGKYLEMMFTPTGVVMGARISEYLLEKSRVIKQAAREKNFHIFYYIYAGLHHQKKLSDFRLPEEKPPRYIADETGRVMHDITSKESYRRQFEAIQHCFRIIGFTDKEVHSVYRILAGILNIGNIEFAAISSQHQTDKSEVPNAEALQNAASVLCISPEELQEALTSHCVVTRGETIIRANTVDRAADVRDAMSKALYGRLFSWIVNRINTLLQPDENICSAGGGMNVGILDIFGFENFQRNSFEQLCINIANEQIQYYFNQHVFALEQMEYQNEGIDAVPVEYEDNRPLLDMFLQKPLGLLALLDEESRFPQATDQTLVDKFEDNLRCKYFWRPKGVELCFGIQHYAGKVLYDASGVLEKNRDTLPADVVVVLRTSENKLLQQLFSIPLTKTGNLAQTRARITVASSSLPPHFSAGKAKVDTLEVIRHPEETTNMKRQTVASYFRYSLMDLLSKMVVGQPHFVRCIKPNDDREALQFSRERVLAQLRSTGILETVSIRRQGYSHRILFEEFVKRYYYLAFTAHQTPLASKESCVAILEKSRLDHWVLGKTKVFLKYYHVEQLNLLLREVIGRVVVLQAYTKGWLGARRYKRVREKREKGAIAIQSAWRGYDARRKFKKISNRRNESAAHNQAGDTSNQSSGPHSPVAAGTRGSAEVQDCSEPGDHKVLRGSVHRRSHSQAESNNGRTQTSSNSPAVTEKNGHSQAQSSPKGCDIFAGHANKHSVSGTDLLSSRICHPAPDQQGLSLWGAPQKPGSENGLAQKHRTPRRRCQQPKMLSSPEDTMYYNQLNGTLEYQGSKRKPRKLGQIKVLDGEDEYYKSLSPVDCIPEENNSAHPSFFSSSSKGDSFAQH

THP-1 = test: Antiproliferative activity against human THP-1 cells assessed as reduction in cell viability measured after 72 hrs; format: functional, cell-based; details: THP-1, 72 h
MV4-11 [17] = test: Downregulation of cyclin T1 protein expression in human MV4-11 cells incubated for 12 hrs by western blot analysis; format: functional, cell-based; details: dose 0.1-4 µM
CDK2/Cyclin A2 = CDK2/Cyclin A2 (Homo sapiens, UniProt P24941); test: Inhibition of CDK2/CyclinA2 (unknown origin) by ADP-Glo assay; format: protein-complex assay
HepG2 = test: Antiproliferative activity against human HepG2 cells assessed as reduction in cell viability measured after 72 hrs; format: functional, cell-based; details: HepG2, 72 h
[18] = molecular target: CDK9/cyclin T1 (Homo sapiens) (UniProt O60563+P50750); test: Inhibition of CDK9/CyclinT1 (unknown origin) at 100 nM by ADP-Glo assay relative to control; format: protein-complex assay
[19] = Metabolic stability of the compound in rat liver microsomes at 10 uM measured for 60 mins in presence of NADPH by LC-MS/MS analysis; format: ADME, Microsome; details: 1 h
MOLM-13 = test: Antiproliferative activity against human MOLM-13 cells assessed as reduction in cell viability measured after 72 hrs; format: functional, cell-based; details: MOLM-13, 72 h
HL-60 = test: Antiproliferative activity against human HL-60 cells assessed as reduction in cell viability measured after 72 hrs; format: functional, cell-based; details: HL-60, 72 h
[20] = Inhibition of CDK1/CyclinA2 (unknown origin) by ADP-Glo assay; design: species or system Homo sapiens
MV4-11 [21] = test: Induction of cell cycle arrest in human MV4-11 cells assessed as accumulation of cells at G0/G1 phase at 0.1 uM incubated fo 36 hrs by propidium iodide staining based flow cytometry (reference value: 64%); format: functional
MV4-11 [22] = test: Induction of apoptosis in human MV4-11 cells assessed as necrotic cells at 0.5 uM incubated for 24 hrs by AnnexinV-FITC/PI staining based flow cytometry (reference value: 0%); format: functional
[23] = Solubility of the compound in water at pH 7.4; format: physicochemical
MV4-11 [24] = test: Antitumor activity against human MV4-11 cells xenografted in BALB/c mouse assessed as inhibition of tumor growth at 15 mg/kg, iv qd and measured every 2 days; format: functional; details: MV4-11, 48 h, read-out: TGI
MV4-11 [25] = test: Induction of apoptosis in human MV4-11 cells assessed as necrotic cells at 1 uM incubated for 24 hrs by AnnexinV-FITC/PI staining based flow cytometry (reference value: 0%); format: functional
[26] = Toxicity in BALB/c mouse xenografted with human MV4-11 cells assessed as effect on body weight at 7.5 to 15 mg/kg, iv qd; format: organism-based; details: in vivo, dose 7.5-15 mg/kg
[27] = molecular target: NUAK family SNF1-like kinase 2 (Homo sapiens) (UniProt Q9H093); test: Inhibition of wild type partial length human SNARK (22 to 333 residues) expressed in mammalian expression system at 1 uM by KINOMEscan analysis
MV4-11 [28] = test: Induction of apoptosis in human MV4-11 cells assessed as early apoptotic cells at 0.1 uM incubated for 24 hrs by AnnexinV-FITC/PI staining based flow cytometry (reference value: 1.42%); format: functional
[29] = molecular target: Cyclin-dependent kinase 9 (Homo sapiens) (UniProt P50750); test: Inhibition of CDK9 in human MV4-11 cells assessed as reduction in Mcl-1 mRNA expression at 0.1 to 2 uM incubated for 12 hrs by qPCR analysis; format: cell-based; details: dose 0.1-2 µM

Cyclin-dependent kinase 12 (Homo sapiens), sequence (Q9NYV4 whole entry, looked up, the tested form may be a part): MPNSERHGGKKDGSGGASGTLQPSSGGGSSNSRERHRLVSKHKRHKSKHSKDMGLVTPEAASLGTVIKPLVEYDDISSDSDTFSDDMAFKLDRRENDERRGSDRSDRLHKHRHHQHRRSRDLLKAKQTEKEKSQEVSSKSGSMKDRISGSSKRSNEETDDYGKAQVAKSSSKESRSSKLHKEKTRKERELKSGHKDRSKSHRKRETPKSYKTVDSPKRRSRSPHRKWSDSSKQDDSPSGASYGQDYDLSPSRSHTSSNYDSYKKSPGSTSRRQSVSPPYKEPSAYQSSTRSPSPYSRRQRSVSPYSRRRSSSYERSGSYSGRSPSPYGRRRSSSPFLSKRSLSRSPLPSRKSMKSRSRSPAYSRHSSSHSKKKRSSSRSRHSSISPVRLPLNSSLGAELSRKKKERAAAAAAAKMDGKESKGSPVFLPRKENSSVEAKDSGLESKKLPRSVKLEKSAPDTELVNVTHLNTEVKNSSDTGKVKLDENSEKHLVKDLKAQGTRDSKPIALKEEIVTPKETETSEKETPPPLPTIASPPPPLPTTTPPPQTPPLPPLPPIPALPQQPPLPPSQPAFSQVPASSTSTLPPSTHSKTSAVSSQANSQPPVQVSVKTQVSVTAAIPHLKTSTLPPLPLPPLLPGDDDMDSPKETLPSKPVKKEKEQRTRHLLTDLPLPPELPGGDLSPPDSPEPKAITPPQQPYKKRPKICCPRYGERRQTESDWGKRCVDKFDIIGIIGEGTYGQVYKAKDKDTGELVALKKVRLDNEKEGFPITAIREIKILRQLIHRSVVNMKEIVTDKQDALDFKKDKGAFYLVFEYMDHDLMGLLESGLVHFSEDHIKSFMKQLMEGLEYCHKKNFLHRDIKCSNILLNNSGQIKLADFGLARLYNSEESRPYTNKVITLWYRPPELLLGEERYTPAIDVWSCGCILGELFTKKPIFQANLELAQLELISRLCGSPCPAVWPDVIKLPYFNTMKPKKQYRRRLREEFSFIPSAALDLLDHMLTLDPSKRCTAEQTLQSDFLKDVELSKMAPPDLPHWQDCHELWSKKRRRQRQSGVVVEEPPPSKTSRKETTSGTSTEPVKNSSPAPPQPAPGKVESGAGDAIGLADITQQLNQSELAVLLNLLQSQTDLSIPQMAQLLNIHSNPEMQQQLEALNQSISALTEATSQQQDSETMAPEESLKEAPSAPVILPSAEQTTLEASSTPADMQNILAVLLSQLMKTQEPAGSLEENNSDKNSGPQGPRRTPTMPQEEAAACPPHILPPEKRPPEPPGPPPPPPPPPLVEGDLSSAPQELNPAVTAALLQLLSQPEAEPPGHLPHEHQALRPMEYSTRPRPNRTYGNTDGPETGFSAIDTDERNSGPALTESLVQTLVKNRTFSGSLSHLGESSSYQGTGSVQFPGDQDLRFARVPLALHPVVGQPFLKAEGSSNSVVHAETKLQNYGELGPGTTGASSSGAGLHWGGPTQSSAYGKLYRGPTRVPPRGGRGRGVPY

COc1cc(O)c2c(=O)cc(-c3ccc(N4CCN(C)CC4)cc3)oc2c1C1=CCN(C)CC1
inhibition [1]: 0%
inhibition [2]: 6%
Activity (MV4-11 [3]): 0.11%
Activity (MV4-11 [4]): Dose-Dependent Effect
Activity (MV4-11 [5]): Dose-Dependent Effect
Stability [6]: Stable
Activity (MV4-11 [7]): 10.8%
IC50 (HCT-116): 20 nM
Activity (MV4-11 [8]): 70.3%
Activity (MV4-11 [9]): 1.96%
Activity (MV4-11 [10]): 6.98%
Activity (MV4-11 [11]): 29.8%
Activity [12]: Non-Toxic
Activity (MV4-11 [13]): 0.42%
Activity (MV4-11 [14]): 67%
inhibition [15]: Active
IC50 (A549): 700 nM
inhibition [16]: 0%
IC50 (THP-1): 450 nM
inhibition (MV4-11 [17]): Dose-Dependent Effect
IC50 (CDK2/Cyclin A2): 533 nM
IC50 (HepG2): 410 nM
inhibition [18]: 98.9%
Stability [19]: Stable
IC50 (MOLM-13): 160 nM
IC50 (HL-60): 180 nM
IC50 [20]: 4180 nM
Activity (MV4-11 [21]): 70.5%
Activity (MV4-11 [22]): 0%
solubility [23]: 120 µg/mL (≈ 260 µM)
inhibition in vivo at 15 mg/kg (MV4-11 [24]): 65%
Activity (MV4-11 [25]): 0.01%
Activity [26]: Non-Toxic
inhibition [27]: 6.2%
Activity (MV4-11 [28]): 1.46%
inhibition [29]: Active
